Laboratory results taken from patent publication US8461077B2 (priority 2007, dated 2013).
Where two headings read alike, the source gives them in different places.

Columns and labels:
Phytophthora infestans [1] = format: cell-based; conditions: single active substance, microtiter plate, day 7, 405 nm
Plasmopara viticola = test: Greenhouse: activity against downy mildew of grapevine; format: in vivo; conditions: single active substance, grapevine leaves sprayed 1 day before inoculation
Experimental: (§1) The active substances, separately or individually, were prepared as a stock solution, using 25 mg of active substance, which was made up to 10 ml with a mixture of acetone and/or DMSO and the emulsifier Uniperol® EL (wetter based on ethoxylated alkylphenols, with emulsifying and disputing activity) in the volumetric solvent/emulsifier ratio of 99 to 1. Then, the mixtures were made up to 100 ml with water. This stock solution was diluted with the above-described solvent/emulsifier/water mixture to give the active substance concentration stated below. As an alternative, the active substances were used as a commercially available ready mix and made up to the active substance concentration stated with water.
(§2) The visually determined values for the percentage of affected leaf area were converted into efficacies as % of the untreated control:
(§3) The efficacy (E) is calculated as follows, using Abbot's formula: E=(1−α/β)·100 • α corresponds to the fungal disease level of the treated plants in % and • β corresponds to the fungal disease level of the untreated (control) plants in %
(§4) At an efficacy of 0 the disease level of the treated plants corresponds to that of the untreated control plants; at an efficacy of 100, the treated plants are not diseased.
(§5) The expected efficacies for active substance combinations were determined using the Colby formula (Colby, S. R. (Calculating synergistic and antagonistic responses of herbicide Combinations”, Weeds, 15, p. 20-22, 1967) and compared with the observed efficacies.
(§6) Colby Formula: E=x+y−x·y/100 • E expected efficacy, expressed in % of the untreated control, when employing the mixture of the active substances A and B at the concentrations a and b • x efficacy, expressed in % of the untreated control, when employing active substance A at concentration a • y efficacy, expressed in % of the untreated control, when employing active substance B at concentration b
Leaves of pot-grown grapevines were sprayed to runoff point with aqueous suspension at the active substance concentration stated below. On the next day, the abaxial sides of the leaves were inoculated with an aqueous sporangia suspension of Plasmopara viticola. Then, the grapevines were placed first for 24 hours into a water-vapor-saturated chamber at 24° C. and then for 5 days in the greenhouse at temperatures of between 20 and 30° C. After this time, the plants were returned into a humid chamber for 16 hours in order to accelerate the eruption of the sporangiophores. Then, the extent of the disease development on the abaxial sides of the leaves was determined visually.

Pyrenophora teres = test: Greenhouse: 1-day protective activity against barley net blotch disease; format: in vivo, Pyrenophora [syn. Drechslera] teres; conditions: single active substance, protective 1 day, rated after 6 days
Experimental: as §1, §2
(§7) The efficacy (E) is calculated as follows, using Abbot's formula: E=(1−α/β)·100 • α corresponds to the fungal disease level of the treated plants in % and • β corresponds to the fungal disease level of the untreated (control) plants in % […]
(§8) The expected efficacies for active substance combinations were determined using the Colby formula (Colby, S. R. (Calculating synergistic and antagonistic responses of herbicide Combinations”, Weeds, 15, p. 20-22, 1967) and compared with the observed efficacies. […]

Septoria tritici = test: Microtiter test against the Septoria leaf spot pathogen (Septtr); format: cell-based; conditions: single active substance, microtiter plate, day 7, 405 nm
Phytophthora infestans [2] = format: in vivo; conditions: single active substance, tomato, protective spray, rated after 6 days
Phakopsora pachyrhizi = test: Greenhouse: curative activity against soybean rust; format: in vivo; conditions: single active substance
Experimental: as §1, §2, §7, §8

Botrytis cinerea = test: Greenhouse: 1-day protective activity against gray mold on capsicum leaves; format: in vivo; conditions: single active substance, protective 1 day, rated after 5 days
Experimental: as §1, §2, §3, §4, §5, §6
Capsicum seedlings were allowed to develop 2-3 leaves properly and were then sprayed to runoff point with an aqueous suspension of the active substance concentration stated below. On the next day, the treated plants were inoculated with a spore suspension of Botrytis cinerea in a 2% strength Biomalz solution. Thereafter, the test plants were placed into a controlled-environment cabinet at 22 to 24° C. in the dark and with high atmospheric humidity. After 5 days, it was possible to visually determine the extent of the fungal disease level on the leaves in %.

Puccinia recondita [3] = test: Greenhouse: curative activity against leaf rust of wheat; format: in vivo; conditions: single active substance
Experimental: as §1, §2, §7, §8

Puccinia recondita [4] = test: Greenhouse: protective activity against leaf rust of wheat; format: in vivo; conditions: single active substance
Experimental: as §1, §2, §7, §8

[5] = 0.063 ppm, efficacy as % of untreated control (Abbot)

Compound | Observed effect (%) (Phytophthora infestans [1]; 1 ppm) | Observed effect (%) (Phytophthora infestans [1]; 4 ppm) | Observed effect (%) (Phytophthora infestans [1]; 16 ppm) | Observed effect (%) (Plasmopara viticola; 0.25 ppm) | also measured
CC(C)C1(C)N=C(c2nc3ccccc3cc2C(=O)O)NC1=O (stereo not drawn) [Imazaquin (I.Cc)] | 8% | 11% | 23% | 0% | –
COC[C@H](C)N(C(=O)CCl)c1c(C)csc1C [Dimethenamid-P (I.Ea)] | – | – | – | – | Observed effect (%) (Plasmopara viticola; 0.016 ppm): 0%
CP(=O)(O)CCC(N)C(=O)O (stereo not drawn) [Glufosinate (I.Ab)] | 3% | 12% | 20% | 0% | Observed effect (%) (Plasmopara viticola; 0.063 ppm): 0%
CC(C)C1(C)N=C(c2ncccc2C(=O)O)NC1=O (stereo not drawn) [Imazapyr (I.Ca)] | 1% | 9% | 8% | – | Observed effect (%) (Plasmopara viticola; 0.063 ppm): 0%
CCCCCCCCc1c(CC)nc2ncnn2c1N [II-7, 5-ethyl-6-octyl-[1,2,4]triazolo[1,5-a]pyrimidin-7-ylamine] | 7% | – | – | – | Observed effect (%) (Plasmopara viticola; 1 ppm): 0%; Observed effect (%) (Plasmopara viticola; 4 ppm): 22%
CCC/C(=N\OCC)C1=C(O)CC(CC(C)SCC)CC1=O (stereo not drawn) [Sethoxydim (I.Bc), sethoxydim, reference compound] | 2% | 5% | 14% | 0% | Observed effect (%) (Pyrenophora teres; 0.25 ppm): 0%
CCc1cnc(C2=NC(C)(C(C)C)C(=O)N2)c(C(=O)O)c1 (stereo not drawn) [Imazethapyr (I.Cb)] | 3% | 8% | 9% | 0% | –
Cc1nc2ncnn2c(N)c1-c1ccc(Cl)c(Cl)c1 [II-1, 6-(3,4-dichlorophenyl)-5-methyl-[1,2,4]triazolo[1,5-a]pyrimidin-7-ylamine] | – | – | – | – | Observed effect (%) (Septoria tritici; 16 ppm): 12%
C[n+]1ccc(-c2cc[n+](C)cc2)cc1 [Paraquat (I.Fa), paraquat, reference compound] | 4% | 5% | 7% | – | Observed effect (%) (Phytophthora infestans [2]; [5]): 0%; Observed effect (%) (Phytophthora infestans [2]; 0.25 ppm): 0%; Observed effect (%) (Phakopsora pachyrhizi; 0.25 ppm, curative (sprayed 1 day after inoculation)): 0%; Observed effect (%) (Botrytis cinerea; 0.25 ppm): 0%
CCCCCCCCc1c(COC)nc2ncnn2c1N [II-10, 5-methoxymethyl-6-octyl-[1,2,4]triazolo[1,5-a]pyrimidin-7-ylamine] | – | – | – | – | Observed effect (%) (Phytophthora infestans [2]; 16 ppm): 0%; Observed effect (%) (Phytophthora infestans [1]; 0.25 ppm): 10%; Observed effect (%) (Phakopsora pachyrhizi; 16 ppm, curative): 0%; Observed effect (%) (Plasmopara viticola; 4 ppm): 0%; Observed effect (%) (Plasmopara viticola; 16 ppm): 44%; Observed effect (%) (Botrytis cinerea; 16 ppm): 0%; Observed effect (%) (Pyrenophora teres; 16 ppm): 0%
CCC(CC)Nc1c([N+](=O)[O-])cc(C)c(C)c1[N+](=O)[O-] [Pendimethalin (I.Da)] | 7% | 16% | 29% | 0% | Observed effect (%) (Phytophthora infestans [1]; 63 ppm): 38%
CCC/C(=N\OCC)C1=C(O)CC(C2CCCSC2)CC1=O (stereo not drawn) [Cycloxydim (I.Ba), cycloxydim, reference compound] | 9% | 5% | 13% | – | Observed effect (%) (Septoria tritici; 63 ppm): 39%; Observed effect (%) (Plasmopara viticola; 0.063 ppm): 0%
CCc1nc2ncnn2c(N)c1CCC(C)CC(C)(C)C (stereo not drawn) [II-8, 5-ethyl-6-(3,5,5-trimethylhexyl)-[1,2,4]triazolo[1,5-a]pyrimidin-7-ylamine] | – | 1% | – | – | Observed effect (%) (Phytophthora infestans [2]; 4 ppm): 22%; Observed effect (%) (Plasmopara viticola; 1 ppm): 33%
CCCCCCCCc1nc2ncnn2c(N)c1CC [II-6, 6-ethyl-5-octyl-[1,2,4]triazolo[1,5-a]pyrimidin-7-ylamine] | – | – | 25% | – | Observed effect (%) (Puccinia recondita [3]; 4 ppm, curative): 0%; Observed effect (%) (Puccinia recondita [4]; 4 ppm): 0%; Observed effect (%) (Plasmopara viticola; 16 ppm): 44%; Observed effect (%) (Botrytis cinerea; 16 ppm): 0%
COCC(C)N(C(=O)CCl)c1c(C)csc1C (stereo not drawn) [Dimetheneamid-P (I.Ea), dimethenamid-P, reference compound] | – | – | – | – | Observed effect (%) (Phytophthora infestans [2]; [5]): 22%; Observed effect (%) (Botrytis cinerea; 0.25 ppm): 0%
O=C(O)CNCP(=O)(O)O [Glyphosate (I.Aa), glyphosate, reference compound] | 4% | 1% | 13% | – | Observed effect (%) (Puccinia recondita [3]; 0.063 ppm, curative (sprayed 1 day after inoculation)): 0%; Observed effect (%) (Puccinia recondita [4]; 0.063 ppm): 0%; Observed effect (%) (Plasmopara viticola; 0.016 ppm): 0%
Cc1cnc(C2=NC(=O)C(C)(C(C)C)N2)c(C(=O)O)c1 (stereo not drawn) [Imazapic (I.Cd)] | 4% | 4% | 12% | 0% | Observed effect (%) (Plasmopara viticola; 0.063 ppm): 0%
